14 compounds from patent publication US9382254B2, “Compounds and pharmaceutical compositions thereof for the treatment of cystic fibrosis” (Galapagos NV, priority 2013, dated 2016) can be followed below.

Molecules are shown by their SMILES. Where “and” joins values, the source holds several entries; their conditions need not be identical. Equal entries are not always repeated.

Assay type in all cases: cell-based
The target of test [1] is T1, CFTR ΔF508 mutant (Homo sapiens, UniProt P13569, DEL508-508).
T1 construct: expressed in transfected cells; host or cells: CFBE41o- (adenoviral transduction)
T1 sequence (P13569 with tags, fused parts or gaps DEL508-508): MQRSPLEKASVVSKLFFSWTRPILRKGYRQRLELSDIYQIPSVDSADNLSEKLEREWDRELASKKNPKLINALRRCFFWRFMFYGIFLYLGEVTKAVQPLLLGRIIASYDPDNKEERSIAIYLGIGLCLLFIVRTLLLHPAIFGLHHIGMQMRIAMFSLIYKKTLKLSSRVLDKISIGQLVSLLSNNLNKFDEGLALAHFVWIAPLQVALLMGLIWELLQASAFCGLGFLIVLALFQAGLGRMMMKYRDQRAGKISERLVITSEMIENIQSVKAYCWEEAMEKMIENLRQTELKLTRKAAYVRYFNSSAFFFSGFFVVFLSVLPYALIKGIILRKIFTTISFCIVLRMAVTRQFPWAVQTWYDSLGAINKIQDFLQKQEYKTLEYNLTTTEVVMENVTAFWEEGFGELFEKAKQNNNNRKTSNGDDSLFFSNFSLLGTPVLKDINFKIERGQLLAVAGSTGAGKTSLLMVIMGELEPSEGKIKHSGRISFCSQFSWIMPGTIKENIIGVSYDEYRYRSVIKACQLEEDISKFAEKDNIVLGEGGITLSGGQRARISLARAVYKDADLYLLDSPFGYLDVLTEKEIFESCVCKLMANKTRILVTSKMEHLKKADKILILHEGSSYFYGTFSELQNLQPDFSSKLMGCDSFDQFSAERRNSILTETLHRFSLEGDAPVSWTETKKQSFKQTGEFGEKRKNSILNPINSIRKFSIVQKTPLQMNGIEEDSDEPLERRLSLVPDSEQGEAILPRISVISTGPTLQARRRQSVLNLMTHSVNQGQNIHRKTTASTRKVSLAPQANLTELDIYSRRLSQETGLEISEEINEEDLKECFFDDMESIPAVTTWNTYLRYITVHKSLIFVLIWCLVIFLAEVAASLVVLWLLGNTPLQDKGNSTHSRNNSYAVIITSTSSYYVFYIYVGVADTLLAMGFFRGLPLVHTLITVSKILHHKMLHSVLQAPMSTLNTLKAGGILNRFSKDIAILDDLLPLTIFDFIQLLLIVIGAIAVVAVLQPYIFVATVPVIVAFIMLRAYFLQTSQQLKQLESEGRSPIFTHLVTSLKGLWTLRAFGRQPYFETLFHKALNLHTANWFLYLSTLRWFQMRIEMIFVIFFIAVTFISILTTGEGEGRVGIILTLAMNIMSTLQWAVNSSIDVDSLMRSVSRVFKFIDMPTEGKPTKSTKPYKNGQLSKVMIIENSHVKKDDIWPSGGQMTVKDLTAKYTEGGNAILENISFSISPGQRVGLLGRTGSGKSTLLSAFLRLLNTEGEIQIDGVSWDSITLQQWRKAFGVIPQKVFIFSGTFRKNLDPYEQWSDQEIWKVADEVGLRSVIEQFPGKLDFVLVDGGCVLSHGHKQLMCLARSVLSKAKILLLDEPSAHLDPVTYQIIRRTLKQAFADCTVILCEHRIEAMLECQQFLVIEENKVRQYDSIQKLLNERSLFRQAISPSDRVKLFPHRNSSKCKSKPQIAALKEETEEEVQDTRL
The test can be described thus: YFP-halide influx assay for the CFTR-ΔF508 mutation (384 well, FDSS/μCell). The note with it: CFBE41o- cells, CFTR-ΔF508, 1×D-PBS, fluorescence after 36 seconds. In a few lines: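 Potentiator read-out as 1−F/F0, F taken 36 s after iodide addition, EC50 fitted against compound concentration. Cells: CFBE41o- expressing ΔF508 CFTR plus halide-sensitive YFP via adenovirus, rescued by 27 °C for 24 h or 24 h modulator at 37 °C.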

The target in another test is T2, CFTR G551D mutant (Homo sapiens, UniProt P13569, G551D).
T2 construct: expressed in transfected cells; host or cells: HEK293 (reverse transfection with plasmid)
T2 sequence (P13569 whole entry G551D): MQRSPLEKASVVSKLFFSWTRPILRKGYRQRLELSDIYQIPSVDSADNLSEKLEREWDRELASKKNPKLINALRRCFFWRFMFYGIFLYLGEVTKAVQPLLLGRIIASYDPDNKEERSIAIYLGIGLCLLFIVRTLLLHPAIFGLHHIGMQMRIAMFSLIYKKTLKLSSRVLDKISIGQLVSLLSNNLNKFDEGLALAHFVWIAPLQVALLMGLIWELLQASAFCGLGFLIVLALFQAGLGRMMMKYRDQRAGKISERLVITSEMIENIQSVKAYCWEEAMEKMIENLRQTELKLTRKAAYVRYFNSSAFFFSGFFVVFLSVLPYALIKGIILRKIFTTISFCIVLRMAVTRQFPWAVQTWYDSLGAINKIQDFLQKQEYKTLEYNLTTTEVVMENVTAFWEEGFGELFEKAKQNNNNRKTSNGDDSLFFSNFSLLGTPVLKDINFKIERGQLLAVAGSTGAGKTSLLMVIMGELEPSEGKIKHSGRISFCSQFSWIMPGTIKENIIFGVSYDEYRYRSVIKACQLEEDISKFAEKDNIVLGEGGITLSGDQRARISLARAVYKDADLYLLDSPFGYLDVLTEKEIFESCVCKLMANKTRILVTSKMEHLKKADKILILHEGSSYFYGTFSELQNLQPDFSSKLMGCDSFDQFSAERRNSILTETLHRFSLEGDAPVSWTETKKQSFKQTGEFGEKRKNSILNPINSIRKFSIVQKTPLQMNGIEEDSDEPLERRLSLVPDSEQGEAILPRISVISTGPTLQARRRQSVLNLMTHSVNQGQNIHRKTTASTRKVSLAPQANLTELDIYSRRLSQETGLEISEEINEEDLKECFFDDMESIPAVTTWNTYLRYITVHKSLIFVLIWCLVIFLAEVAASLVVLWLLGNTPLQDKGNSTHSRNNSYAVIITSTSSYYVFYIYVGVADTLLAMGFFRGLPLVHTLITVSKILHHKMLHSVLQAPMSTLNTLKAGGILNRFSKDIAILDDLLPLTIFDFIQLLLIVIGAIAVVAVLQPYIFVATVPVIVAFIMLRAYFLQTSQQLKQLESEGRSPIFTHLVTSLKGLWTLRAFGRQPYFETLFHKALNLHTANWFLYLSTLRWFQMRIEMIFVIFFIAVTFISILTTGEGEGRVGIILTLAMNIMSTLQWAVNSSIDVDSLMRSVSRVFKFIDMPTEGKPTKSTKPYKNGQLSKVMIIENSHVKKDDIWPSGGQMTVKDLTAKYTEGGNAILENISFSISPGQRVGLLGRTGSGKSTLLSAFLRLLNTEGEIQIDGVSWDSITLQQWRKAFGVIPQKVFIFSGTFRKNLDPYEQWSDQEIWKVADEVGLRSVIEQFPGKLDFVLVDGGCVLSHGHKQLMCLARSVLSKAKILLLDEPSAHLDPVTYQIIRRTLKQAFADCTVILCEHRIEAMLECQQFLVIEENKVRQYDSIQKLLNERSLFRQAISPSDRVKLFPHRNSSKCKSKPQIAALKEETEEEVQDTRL
In words: YFP-halide influx assay for the CFTR-G551D mutation. The note with it: HEK293 cells, forskolin 10.67 μM. In a few lines: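 HEK293 cells reverse-transfected with CFTR G551D and YFP H148Q/I152L/F47L halide sensor, expressed 24 h at 37 °C. Iodide-induced fluorescence quench recorded 7 s after I− injection; response = 1−F/F0, with EC50 from plot against compound concentration.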

Another test concerns the target T3, CFTR-R117H (Homo sapiens, UniProt P13569, R117H).
T3 construct: expressed in transfected cells
The test can be described thus: YFP-halide influx assay for the CFTR-R117H. In a few lines:
(§1)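 HEK293 cells reverse-transfected with the CFTR mutant plus halide-sensitive YFP (H148Q/I152L/F47L), expressed 24 h at 37 °C. Channel activity measured as I⁻-induced fluorescence quenching over 7 s after injection, expressed as 1-F/F0; EC50 from 1-F/F0 versus compound concentration.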

In test [2] the target is T1, CFTR ΔF508 mutant. In words: YFP-halide influx assay for the CFTR-ΔF508 mutation, PBS buffer (96 well). To be noted: CFBE41o- cells, forskolin 10.67 μM. In a few lines:
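CFBE41o- cells were adenovirally transduced with CFTR ΔF508 and YFP H148Q/I152L, then incubated 24 h at 27 °C or with a CFTR modulator at 37 °C. I⁻-induced fluorescence quenching was recorded over 7 s after injection; response expressed as 1−F/F0, with EC50 from concentration plots.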

A further test addresses T4, CFTR-S549N (Homo sapiens, UniProt P13569, S549N).
T4 construct: expressed in transfected cells
In words: YFP-halide influx assay for the CFTR-S549N. In a few lines: as §1

The next test concerns the target T5, CFTR-G1349D (Homo sapiens, UniProt P13569, G1349D).
T5 construct: expressed in transfected cells
The test can be described thus: YFP-halide influx assay for the CFTR-G1349D. In a few lines: as §1

In a further test the target is T6, CFTR-G178R (Homo sapiens, UniProt P13569, G178R).
T6 construct: expressed in transfected cells
T6 sequence (P13569 whole entry G178R): as the sequence (P13569 whole entry G551D) above, with G178R, D551G counted along it
In words: YFP-halide influx assay for the CFTR-G178R. In a few lines:
as §1

T4 sequence (P13569 whole entry S549N): as the sequence (P13569 whole entry G551D) above, with S549N, D551G counted along it
T3 sequence (P13569 whole entry R117H): as the sequence (P13569 whole entry G551D) above, with R117H, D551G counted along it
T5 sequence (P13569 whole entry G1349D): as the sequence (P13569 whole entry G551D) above, with D551G, G1349D counted along it

Regarding `NC(=O)c1cc(S(=O)(=O)c2ccc(F)cc2)sc1NC(=O)C1(CO)CC1` [Compound 254, 5-(4-fluorophenylsulfonyl)-2-(1-(hydroxymethyl)cyclopropanecarboxamido) thiophene-3-carboxamide], the half-maximal effective concentration (EC50) on CFTR ΔF508 mutant [1] was 0.0278 µM; at CFTR G551D mutant, 0.878 µM and 1.41 µM; at CFTR-R117H, 0.127 µM; at CFTR ΔF508 mutant [2], 0.0303 µM and 0.137 µM; at CFTR-S549N it was 0.243 µM; on CFTR-G1349D, 0.141 µM. In addition, a half-maximal response at CFTR-G178R (EC50) required 0.058 µM.
Turning to `CC(C)(O)C(=O)Nc1sc(S(=O)(=O)c2ccc(OC(F)(F)F)cc2)cc1C(N)=O` [Compound 270, 2-(2-hydroxy-2-methylpropanamido)-5-(4-(trifluoromethoxy)phenylsulfonyl) thiophene-3-carboxamide], the EC50 at CFTR ΔF508 mutant [1] came out at 0.0183 µM; at CFTR G551D mutant, 0.478 µM; at CFTR-R117H it was 0.181 µM; on CFTR ΔF508 mutant [2], 0.0197 µM; on CFTR-S549N it was 0.415 µM; at CFTR-G1349D, 0.211 µM. This compound returned a 50% effective concentration (EC50) at CFTR-G178R of 0.291 µM.
In the case of `CC(C)(O)C(=O)Nc1sc(S(=O)(=O)c2ccccc2OC(F)(F)F)cc1C(N)=O` [Compound 271, 2-(2-hydroxy-2-methylpropanamido)-5-(2-(trifluoromethoxy)phenylsulfonyl) thiophene-3-carboxamide], the EC50 on CFTR ΔF508 mutant [1] stood at 0.0075 µM; on CFTR G551D mutant it was 0.178 µM; at CFTR-R117H, 0.04 µM; at CFTR ΔF508 mutant [2], 0.0081 µM; on CFTR-S549N, 0.0609 µM; on CFTR-G1349D, 0.0375 µM. Also, the EC50 at CFTR-G178R is 0.0239 µM.
For `CC(C)(O)C(=O)Nc1sc(S(=O)(=O)c2ccc(F)cc2Cl)cc1C(N)=O` [Compound 286, 5-(2-chloro-4-fluorophenylsulfonyl)-2-(2-hydroxy-2-methylpropanamido) thiophene-3-carboxamide], the EC50 worked out at 0.0265 µM on CFTR ΔF508 mutant [1]; 0.857 µM on CFTR G551D mutant; 0.16 µM on CFTR-R117H; 0.0462 µM on CFTR ΔF508 mutant [2]; 1.15 µM on CFTR-S549N; 0.304 µM at CFTR-G1349D. On CFTR-G178R, this compound returned a concentration giving a half-maximal response (EC50) of 0.165 µM.
As for `CC(C)(O)C(=O)Nc1sc(S(=O)(=O)c2ccccc2Cl)cc1C(N)=O` [Compound 290, 5-(2-chlorophenylsulfonyl)-2-(2-hydroxy-2-methylpropanamido) thiophene-3-carboxamide], the concentration for a half-maximal effect (EC50) is 0.0276 µM at CFTR ΔF508 mutant [1]; 0.88 µM at CFTR G551D mutant; 0.166 µM at CFTR-R117H; 0.0343 µM at CFTR ΔF508 mutant [2]; 0.871 µM on CFTR-S549N; 0.258 µM on CFTR-G1349D. Further, at CFTR-G178R, the concentration giving a half-maximal response (EC50) is 0.207 µM.
Turning to `CC(C)(O)C(=O)Nc1sc(S(=O)(=O)c2c(Cl)cccc2Cl)cc1C(N)=O` [Compound 298, 5-(2,6-Dichloro-benzenesulfonyl)-2-(2-hydroxy-2-methyl-propionylamino)-thiophene-3-carboxylic acid amide], the EC50 at CFTR ΔF508 mutant [1] worked out at 0.0055 µM; at CFTR G551D mutant, 0.207 µM; at CFTR-R117H, 0.0972 µM; at CFTR ΔF508 mutant [2], 0.0062 µM; on CFTR-S549N, 0.164 µM; at CFTR-G1349D, 0.0695 µM. Moreover, the EC50 on CFTR-G178R worked out at 0.104 µM.
On to `CC(C)(O)C(=O)Nc1sc(S(=O)(=O)c2ccsc2C(F)(F)F)cc1C(N)=O` [Compound 425, 2-[(2-hydroxy-2-methyl-propanoyl)amino]-5-[[2-(trifluoromethyl)-3-thienyl]sulfonyl] thiophene-3-carboxamide], for which the EC50 on CFTR ΔF508 mutant [1] was 0.0069 µM; at CFTR G551D mutant it was 0.762 µM; on CFTR-R117H, 0.144 µM; at CFTR-S549N, 0.715 µM; on CFTR-G1349D it was 0.364 µM; on CFTR-G178R, 1.27 µM.
On to `CC(C)(O)C(=O)Nc1sc(S(=O)(=O)c2nc(C(C)(C)C)ccc2C(F)(F)F)cc1C(N)=O` [Compound 426, 5-[[6-tert-butyl-3-(trifluoromethyl)-2-pyridyl]sulfonyl]-2-[(2-hydroxy-2-methyl-propanoyl)amino] thiophene-3-carboxamide], for which the EC50 on CFTR ΔF508 mutant [1] is 0.00258 µM; at CFTR G551D mutant, 0.0613 µM; at CFTR-R117H, 0.0831 µM; on CFTR-S549N, 0.0262 µM; at CFTR-G1349D, 0.00606 µM; at CFTR-G178R, 0.00985 µM.
Take `CC(C)(O)C(=O)Nc1sc(S(=O)(=O)c2cccc(C(F)(F)F)n2)cc1C(N)=O` [Compound 427, 2-[(2-hydroxy-2-methyl-propanoyl)amino]-5-[[6-(trifluoromethyl)-2-pyridyl]sulfonyl] thiophene-3-carboxamide]: the EC50 at CFTR ΔF508 mutant [1] turned out to be 0.042 µM; at CFTR G551D mutant, 2.23 µM; at CFTR-R117H, 1.35 µM; on CFTR-S549N it was 1.02 µM; on CFTR-G1349D, 0.438 µM; on CFTR-G178R it was 0.67 µM.
`CC(C)(O)C(=O)Nc1sc(S(=O)(=O)c2cc(Cl)cc(C(F)(F)F)c2)cc1C(N)=O` [Compound 429, 5-[3-chloro-5-(trifluoromethyl)phenyl]sulfonyl-2-[(2-hydroxy-2-methyl-propanoyl)amino] thiophene-3-carboxamide]: the EC50 stood at 0.0175 µM at CFTR ΔF508 mutant [1]; 0.936 µM at CFTR G551D mutant; 0.208 µM on CFTR-R117H; 0.507 µM on CFTR-S549N; 0.229 µM on CFTR-G1349D; 0.142 µM at CFTR-G178R.
Consider `Cc1cc(C(F)(F)F)cc(S(=O)(=O)c2cc(C(N)=O)c(NC(=O)C(C)(C)O)s2)c1` [Compound 430, 2-[(2-hydroxy-2-methyl-propanoyl)amino]-5-[3-methyl-5-(trifluoromethyl)phenyl] sulfonyl-thiophene-3-carboxamide], for which the EC50 was 0.0107 µM at CFTR ΔF508 mutant [1]; 1.5 µM at CFTR G551D mutant; 0.321 µM at CFTR-R117H; 0.702 µM at CFTR-S549N; 3.33 µM at CFTR-G1349D; 0.283 µM at CFTR-G178R.
For the compound `CC(C)(O)C(=O)Nc1sc(S(=O)(=O)c2cc(Cl)ncc2C#N)cc1C(N)=O` [Compound 432, 5-[(2-chloro-5-cyano-4-pyridyl)sulfonyl]-2-[(2-hydroxy-2-methyl-propanoyl)amino] thiophene-3-carboxamide], the concentration for a half-maximal effect (EC50) came to 0.0479 µM at CFTR ΔF508 mutant [1]; 5.55 µM on CFTR G551D mutant; 0.359 µM at CFTR-R117H; 1.48 µM at CFTR-S549N; 3.33 µM on CFTR-G1349D; 1.11 µM at CFTR-G178R.
For `CC(C)(O)C(=O)Nc1sc(S(=O)(=O)c2ccc(C(C)(C)C)cn2)cc1C(N)=O` [Compound 433, 5-[(5-tert-butyl-2-pyridyl)sulfonyl]-2-[(2-hdyroxy-2-methyl-propanoyl)amino] thiophene-3-carboxamide], the half-maximal effective concentration (EC50) at CFTR ΔF508 mutant [1] was 0.0488 µM; at CFTR G551D mutant, 1.3 µM; at CFTR-R117H, 0.676 µM; on CFTR-S549N, 0.405 µM; at CFTR-G1349D, 3.33 µM; at CFTR-G178R, 0.217 µM.
In the case of `NC(=O)c1cc(S(=O)(=O)c2ccc(OC(F)(F)F)cc2F)sc1NC(=O)C1(CO)CC1` [Compound 435, 5-[2-fluoro-4-(trifluoromethoxy)phenyl] sulfonyl-2-[[1-(hydroxymethyl)cyclopropanecarbonyl]amino] thiophene-3-carboxamide], the EC50 on CFTR ΔF508 mutant [1] is 0.0165 µM; at CFTR G551D mutant, 1.92 µM; on CFTR-R117H, 0.173 µM; at CFTR-S549N it was 0.242 µM; on CFTR-G1349D, 0.117 µM; at CFTR-G178R it was 0.0338 µM.

As a reminder, the EC50 is the concentration that produces a half-maximal response.
